Measurements published in patent US20110105541A1, “ALKYL SUBSTITUTED ARYLINDENOPYRIMIDINES AND THEIR USE AS HIGHLY SELECTIVE ADENOSINE A2a RECEPTOR ANTAGONISTS” (priority 2009, published 2011).

Key:
[1] = target: T1, human adenosine A2A receptor (Homo sapiens, UniProt P29274); assay: Adenosine A2A receptor functional assay (A2AGAL2), cAMP inducible beta-galactosidase reporter, NECA challenge; format: cell-based; conditions: for IC50: CHO-K1 cells overexpressing human A2A receptor, antagonist curve against 15 nM NECA; for A1/A2A: ratio of A1Gal2 to A2AGal2 values (selectivity for A2A over A1)
T1 construct: expressed in transfected cells; host or cells: CHO-K1
T1 sequence (P29274 whole entry): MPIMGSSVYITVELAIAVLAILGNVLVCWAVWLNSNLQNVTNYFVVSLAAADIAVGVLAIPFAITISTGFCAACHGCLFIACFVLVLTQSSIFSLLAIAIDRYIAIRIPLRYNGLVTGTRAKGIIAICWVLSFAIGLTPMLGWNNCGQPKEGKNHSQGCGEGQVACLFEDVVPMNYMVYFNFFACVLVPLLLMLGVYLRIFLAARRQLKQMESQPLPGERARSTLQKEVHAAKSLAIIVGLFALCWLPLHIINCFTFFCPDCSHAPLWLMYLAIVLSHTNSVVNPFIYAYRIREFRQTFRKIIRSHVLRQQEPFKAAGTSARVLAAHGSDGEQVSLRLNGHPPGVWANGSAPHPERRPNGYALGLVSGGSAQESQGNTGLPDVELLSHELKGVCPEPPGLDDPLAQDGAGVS
Method: Adenosine A2 Receptor Functional Assay (A2AGAL2)
To initiate the functional assay, cryopreserved CHO—K1 cells overexpressing the human adenosine A2A receptor and containing a cAMP inducible beta-galactosidase reporter gene were thawed, centrifuged, DMSO containing media removed, and then seeded with fresh culture media into clear 384-well tissue culture treated plates (BD #353961) at a concentration of 10K cells/well. Prior to assay, these plates were cultured for two days at 37° C., 5% CO2, 90% Rh. On the day of the functional assay, culture media was removed and replaced with 45 μL assay medium (Hams/F-12 Modified (Mediatech # 10-080CV) supplemented w/0.1% BSA). Test compounds were diluted and 11 point curves created at a 1000× concentration in 100% DMSO. Immediately after addition of assay media to the cell plates, […] of the appropriate test compound antagonist or agonist control curves were added to cell plates using a Cartesian Hummingbird. Compound curves were allowed to incubate at room temperature on cell plates for approximately 15 minutes before addition of a 15 nM NECA (Sigma E2387) agonist challenge (5 μL volume). A control curve of NECA, a DMSO/Media control, and a single dose of Forskolin (Sigma F3917) were also included on each plate. After additions, cell plates were allowed to incubate at 37° C., 5% CO2, 90% Rh for 5.5-6 hours. After incubation, media were removed, and cell plates were washed 1×50 μL with DPBS w/o Ca & Mg (Mediatech 21-031-CV). Into dry wells, 20 μL of 1× Reporter Lysis Buffer (Promega E3971 (diluted in dH2O from 5× stock)) was added to each well and plates frozen at −20° C. overnight. For β-galactosidase enzyme colorimetric assay, plates were thawed out at room temperature and 20 μL 2× assay buffer (Promega) was added to each well. Color was allowed to develop at 37° C., 5% CO2, 90% Rh for 1-1.5 h or until reasonable signal appeared. The colorimetric reaction was stopped with the addition of 60 μL/well 1M sodium carbonate. Plates were counted at 405 nm on a SpectraMax Microplate Reader (Molecular Devices). Data was analyzed in Microsoft Excel and IC/EC50 curves were fit using a standardized macro.

[2] = target: T2, human adenosine A1 receptor (Homo sapiens, UniProt P30542); assay: Adenosine A1 receptor functional assay (A1GAL2), cAMP inducible beta-galactosidase reporter, r-PIA/Forskolin challenge; format: cell-based; conditions: CHO-K1 cells overexpressing human A1 receptor; antagonist curve against 4 nM r-PIA/1 uM Forskolin
T2 construct: expressed in transfected cells; host or cells: CHO-K1
T2 sequence (P30542 1-326): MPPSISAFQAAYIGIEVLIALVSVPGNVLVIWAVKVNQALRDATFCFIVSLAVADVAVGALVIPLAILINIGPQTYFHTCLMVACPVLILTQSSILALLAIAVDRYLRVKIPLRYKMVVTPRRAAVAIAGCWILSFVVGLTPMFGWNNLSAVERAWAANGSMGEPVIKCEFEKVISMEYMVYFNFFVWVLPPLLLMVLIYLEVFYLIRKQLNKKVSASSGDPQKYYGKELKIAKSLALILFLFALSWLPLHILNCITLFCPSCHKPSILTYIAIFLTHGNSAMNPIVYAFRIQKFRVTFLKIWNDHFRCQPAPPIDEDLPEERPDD
Method: Adenosine A1 Receptor Functional Assay (A1GAL2)
To initiate the functional assay, cryopreserved CHO—K^1 cells overexpressing the human adenosine A1 receptor and containing a cAMP inducible beta-galactosidase reporter gene were thawed, centrifuged, DMSO containing media removed, and then seeded with fresh culture media into clear 384-well tissue culture treated plates (BD #353961) at a concentration of 10K cells/well. Prior to assay, these plates were cultured for two days at 37° C., 5% CO2, 90% Rh. On the day of the functional assay, culture media was removed and replaced with 45 μL assay medium (Hams/F-12 Modified (Mediatech # 10-080CV) supplemented w/0.1% BSA). Test compounds were diluted and 11 point curves created at a 1000× concentration in 100% DMSO. Immediately after addition of assay media to the cell plates, […] of the appropriate test compound antagonist or agonist control curves were added to cell plates using a Cartesian Hummingbird. Compound curves were allowed to incubate at room temperature on cell plates for approximately 15 minutes before addition of a 4 nM r-PIA (Sigma P4532)/1 uM Forskolin (Sigma F3917) agonist challenge (5 μL volume). A control curve of r-PIA in 1 uM Forskolin, a DMSO/Media control, and a single dose of Forskolin were also included on each plate. After additions, cell plates were allowed to incubate at 37° C., 5% CO2, 90% Rh for 5.5-6 hours. After incubation, media was removed, and cell plates were washed 1×50 μL with DPBS w/o Ca & Mg (Mediatech 21-031-CV). Into dry wells, 20 μL of 1× Reporter Lysis Buffer (Promega E3971 (diluted in dH2O from 5× stock)) was added to each well and plates frozen at −20° C. overnight. For β-galactosidase enzyme colorimetric assay, plates were thawed out at room temperature and 20 μL 2× assay buffer (Promega) was added to each well. Color was allowed to develop at 37° C., 5% CO2, 90% Rh for 1-1.5 h or until reasonable signal appeared. […] Plates were counted at 405 nm on a SpectraMax Microplate Reader (Molecular Devices). Data was analyzed in Microsoft Excel and IC/EC50 curves were fit using a standardized macro.

| IC50 [1] | A1/A2A [1] | IC50 [2] | Structure (SMILES) |
| --- | --- | --- | --- |
| 11.9 nM | 276.249 | 3280 nM | Cc1nc(C)c(Cc2cccc3c2-c2nc(N)nc(-c4ccc(F)cc4)c2C3=O)s1 [Example 1, 2-Amino-9-(2,4-dimethyl-thiazol-5-ylmethyl)-4-(4-fluoro-phenyl)-indeno[1,2-d]pyrimidin-5-one] |
| 0.75 nM | 195.975 | 147 nM | Nc1nc(-c2ccc(F)cc2)c2c(n1)-c1c(Cc3cn[nH]c3)cccc1C2=O [Example 2, 2-Amino-4-(4-fluoro-phenyl)-9-(1H-pyrazol-4-ylmethyl)-indeno[1,2-d]pyrimidin-5-one] |
| 41.3 nM | 64.5654 | 2670 nM | Cc1noc(C)c1Cc1cccc2c1-c1nc(N)nc(-c3ccc(F)cc3)c1C2=O [Example 3, 2-Amino-9-(3,5-dimethyl-isoxazol-4-ylmethyl)-4-(4-fluoro-phenyl)-indeno[1,2-d]pyrimidin-5-one] |
